# Reference: article PMC9369007 (International Journal of Molecular Sciences, 2022)
# Columns and labels:
# LSD1 = details: Figure 1, reported LSD1 inhibitors; cited from earlier work
# LSD1 demethylase = LSD1 demethylase (Homo sapiens, UniProt O60341); experiment: LSD1 demethylase inhibition assay
# Description: The inhibition of LSD1 activity by our tested compounds was evaluated according to a previously reported procedure [65, 66, 67, 68] and as mentioned in the assay kit in Supplementary Materials.
# HCT116 cells = experiment: MTT cytotoxicity assay, HCT116; details: Homo sapiens, HCT-116, 72 h, read-out: In Vitro Cytotoxicity IC50 HCT116
# Description: (§1) The in vitro cytotoxic testing of novel derivatives was performed against different three cancer cell lines, HepG2, MCF-7, and HCT116, using standard MTT assay as previously reported [22, 62, 63, 64].
# HepG2 cells = experiment: MTT cytotoxicity assay, HepG2; details: Homo sapiens, HepG2, 72 h, read-out: In Vitro Cytotoxicity IC50 HepG2
# Description: as §1
# MCF-7 cells = experiment: MTT cytotoxicity assay, MCF-7; details: Homo sapiens, MCF7, 72 h, read-out: In Vitro Cytotoxicity IC50 MCF-7
# Description: as §1
# HepG2 and MCF-7 cells = experiment: DNA fragmentation, diphenylamine test; type: cell-based, human; details: 24 h at IC50 value, untreated control about 4.7 ± 0.2%
# Description: Apoptosis is characterized by DNA fragmentation, which occurs in all stages of the process. The percentage of fragmented DNA released into the cytoplasm from apoptotic nuclei was determined using a diphenylamine test.
# DNA fragmentation was quantitatively determined using a diphenylamine (DPA) reagent according to the method of Boraschi and Maurizi.
# in vitro = details: human, WI38 normal lung fibroblast cells
# [1] = LSD1 inhibitory IC50, Table 2, mean ± S.D., at least three tests
# [2] = LSD1 inhibition IC50, as quoted in the docking section
IC50 (LSD1 demethylase; [1]),melting point,IC50 (LSD1 demethylase; [2]),IC50 at 72 h (in vitro),Compound,IC50 (LSD1),IC50 (HCT116 cells),IC50 (HepG2 cells),IC50 (MCF-7 cells),Percentage of DNA fragmentation (HepG2 and MCF-7 cells)
,,,,CCCSc1nc(Sc2nnc(C)s2)c2nnn(CCO)c2n1 [Compound 7],3.93 µM,,,,
,,,,Cc1ccc(Cn2cc(CSC(=S)N3CCN(C(=O)OC(C)(C)C)CC3)nn2)cc1 [Compound 8],0.65 µM,,,,
1.51 ± 0.075 µM,279 to 281 °C,,,"Cn1c(-c2cc(-c3n[nH]c(=S)n3C)cc(-c3n[nH]c(=S)n3C)c2)n[nH]c1=S [Compound 18, 3,3′,3″-(benzene-1,3,5-triyl)tris(4-methyl-1H-1,2,4-triazole-5(4H)-thione)]",,38.6 ± 0.75 µM,26.1 ± 0.76 µM,23.9 ± 0.52 µM,
0.17 ± 0.008 µM,266 to 268 °C,,,"CCn1c(-c2cc(-c3n[nH]c(=S)n3CC)cc(-c3n[nH]c(=S)n3CC)c2)n[nH]c1=S [Compound 19, 3,3′,3″-(benzene-1,3,5-triyl)tris(4-ethyl-1H-1,2,4-triazole-5(4H)-thione)]",,21.6 ± 0.16 µM,55.3 ± 0.44 µM,9.66 ± 0.76 µM,
0.137 ± 0.006 µM,251 to 252 °C,,,"S=c1[nH]nc(-c2cc(-c3n[nH]c(=S)n3C3CCCCC3)cc(-c3n[nH]c(=S)n3C3CCCCC3)c2)n1C1CCCCC1 [Compound 20, 3,3′,3″-(benzene-1,3,5-triyl)tris(4-cyclohexyl-1H-1,2,4-triazole-5(4H)-thione)]",,10.1 ± 0.37 µM,2.65 ± 0.69 µM,13.7 ± 0.41 µM,approximately 28.5 ± 1.5%
0.32 ± 0.016 µM,287 to 288 °C,,,"C=CCn1c(-c2cc(-c3n[nH]c(=S)n3CC=C)cc(-c3n[nH]c(=S)n3CC=C)c2)n[nH]c1=S [Compound 21, 3,3′,3″-(benzene-1,3,5-triyl)tris(4-allyl-1H-1,2,4-triazole-5(4H)-thione)]",,3.56 ± 0.22 µM,2.36 ± 0.34 µM,5.83 ± 0.18 µM,
0.074 ± 0.002 µM,240 to 241 °C,0.0464 µM,16 ± 0.52 µM,"S=c1[nH]nc(-c2cc(-c3n[nH]c(=S)n3Cc3ccccc3)cc(-c3n[nH]c(=S)n3Cc3ccccc3)c2)n1Cc1ccccc1 [Compound 22, 3,3′,3″-(benzene-1,3,5-triyl)tris(4-benzyl-1H-1,2,4-triazole-5(4H)-thione)]",,5.27 ± 0.16 µM,8.23 ± 0.85 µM,2.65 ± 0.23 µM,
0.065 ± 0.003 µM,229 to 230 °C,0.0651 µM,,"S=c1[nH]nc(-c2cc(-c3n[nH]c(=S)n3-c3ccccc3)cc(-c3n[nH]c(=S)n3-c3ccccc3)c2)n1-c1ccccc1 [Compound 23, 3,3′,3″-(benzene-1,3,5-triyl)tris(4-phenyl-1H-1,2,4-triazole-5(4H)-thione)]",,2.01 ± 0.91 µM,5.49 ± 0.38 µM,26.1 ± 0.69 µM,
0.45 ± 0.022 µM,247 to 248 °C,,,"CNc1nnc(-c2cc(-c3nnc(NC)s3)cc(-c3nnc(NC)s3)c2)s1 [Compound 24, 5,5′,5″-(benzene-1,3,5-triyl)tris(N-methyl-1,3,4-thiadiazol-2-amine)]",,18.1 ± 1.05 µM,6.47 ± 0.69 µM,9.2 ± 0.31 µM,
0.14 ± 0.007 µM,233 to 234 °C,,,"CCNc1nnc(-c2cc(-c3nnc(NCC)s3)cc(-c3nnc(NCC)s3)c2)s1 [Compound 25, 5,5′,5″-(benzene-1,3,5-triyl)tris(N-ethyl-1,3,4-thiadiazol-2-amine)]",,28.9 ± 0.32 µM,13 ± 0.71 µM,28.1 ± 1.1 µM,
0.311 ± 0.015 µM,218 to 219 °C,,,"c1c(-c2nnc(NC3CCCCC3)s2)cc(-c2nnc(NC3CCCCC3)s2)cc1-c1nnc(NC2CCCCC2)s1 [Compound 26, 5,5′,5″-(benzene-1,3,5-triyl)tris(N-cyclohexyl-1,3,4-thiadiazol-2-amine)]",,17.6 ± 0.71 µM,95.7 ± 3.1 µM,17.1 ± 3.1 µM,
0.21 ± 0.01 µM,204 to 205 °C,,,"c1ccc(Nc2nnc(-c3cc(-c4nnc(Nc5ccccc5)s4)cc(-c4nnc(Nc5ccccc5)s4)c3)s2)cc1 [Compound 28, 5,5′,5″-(benzene-1,3,5-triyl)tris(N-phenyl-1,3,4-thiadiazol-2-amine)]",,110 ± 0.85 µM,25.6 ± 0.18 µM,2.34 ± 2.3 µM,
,,,11.8 ± 0.44 µM,"CC(=O)O[C@H]1C(=O)[C@@]2(C)[C@H]([C@H](OC(=O)c3ccccc3)[C@]3(O)C[C@H](OC(=O)[C@H](O)[C@@H](NC(=O)c4ccccc4)c4ccccc4)C(C)=C1C3(C)C)[C@]1(OC(C)=O)CO[C@@H]1C[C@@H]2O [Taxol, reference compound]",,7.96 ± 0.38 µM,4.44 ± 0.24 µM,7.8 ± 0.42 µM,
